TGI data for 13 molecules are collected here from PubChem BioAssay (NCI).

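Interpolation was linear, between the two tested concentrations surrounding the appropriate level; five concentrations were tested over 48 hours in 96-well plates. The concentration for full growth arrest is given as TGI.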

Usually TGI stands for the concentration giving total growth inhibition. Read a high TGI as lower sensitivity of the cells.

Among the test systems are OVCAR-4 ovarian; HS 578T breast; DU-145 prostate; BT-549 breast; HOP-62 NSCLC; KM12 colon; MOLT-4 leukemia; MCF7 breast; UACC-62 melanoma; CAKI-1 renal.
Holding throughout (experiment): DTP human tumour cell line panel, 48 h

Regarding `C[C@]12CC[C@@H]3c4ccc(O)cc4CC[C@H]3[C@@H]1C/C(=C\c1ccncc1)[C@@H]2O`, the TGI with OVCAR-4 ovarian was more than 100 µM; with HS 578T breast it was 20.9 µM; in the test on DU-145 prostate, more than 100 µM; with BT-549 breast, 14.2 µM; in the test on HOP-62 NSCLC it was 44.5 µM; in the test on KM12 colon, 62.2 µM. The TGI in the test with MOLT-4 leukemia is 40.8 µM; in the test on MCF7 breast it was 30.2 µM; in the test with UACC-62 melanoma it was 25.6 µM; with CAKI-1 renal it was 75.2 µM.

For the molecule `O=c1[nH]cnc2c1ncn2[C@@H]1C[C@@H]1CO`, the TGI in the test with OVCAR-4 ovarian, in the test with HS 578T breast, in the test with DU-145 prostate, in the test on BT-549 breast, in the test with HOP-62 NSCLC and in the test on KM12 colon was more than 100 µM each time. Also, the TGI in the test with MOLT-4 leukemia, with MCF7 breast, with UACC-62 melanoma and with CAKI-1 renal was more than 100 µM in each case.

For `O=C(Nc1ccccc1F)c1cc2ccc(O)cc2oc1=Nc1ccccc1F`, the TGI was found to be 3.94 µM in the test with OVCAR-4 ovarian; 5.03 µM in the test on HS 578T breast; 3.75 µM in the test on DU-145 prostate; 6.95 µM with BT-549 breast; 4.31 µM in the test on HOP-62 NSCLC; 5.37 µM in the test with KM12 colon. In addition, the TGI with MOLT-4 leukemia came out at 6.11 µM; in the test with MCF7 breast, 11.3 µM; in the test on UACC-62 melanoma, 5.9 µM; with CAKI-1 renal, 4.46 µM.

With `S=c1[nH]c2ccc(Br)cc2c(=S)s1`, the TGI was 38.6 µM in the test on OVCAR-4 ovarian; more than 100 µM in the test on HS 578T breast; more than 100 µM with DU-145 prostate; more than 100 µM with BT-549 breast; more than 100 µM with HOP-62 NSCLC; more than 100 µM in the test with KM12 colon. The TGI with MOLT-4 leukemia was more than 100 µM; with MCF7 breast, 40.8 µM; in the test on UACC-62 melanoma, 50.7 µM; with CAKI-1 renal, 57.9 µM.

Regarding `CCCCNC(=S)N/N=C/c1cccc(C)n1`, the TGI in the test on OVCAR-4 ovarian is more than 100 µM; in the test on HS 578T breast, more than 100 µM; with DU-145 prostate, more than 100 µM; with BT-549 breast it was more than 100 µM; with HOP-62 NSCLC it was 55.2 µM; in the test on KM12 colon, more than 100 µM. Also, the TGI with MOLT-4 leukemia was 55.1 µM; in the test with MCF7 breast, more than 100 µM; in the test on UACC-62 melanoma it was 68.3 µM; with CAKI-1 renal, 87.8 µM.

Regarding `Cc1cc2c([N+](=O)[O-])cc3c(c2o1)C(=O)C=CC3=O`, the TGI in the test on OVCAR-4 ovarian was 30.2 µM; in the test with HS 578T breast it was 54.8 µM; in the test on DU-145 prostate, more than 52.3 µM; with BT-549 breast, 30.4 µM; in the test on HOP-62 NSCLC it was 34.1 µM; in the test on KM12 colon it was 32.2 µM. In addition, the total growth inhibition concentration (TGI) was determined as 2.94 µM with MOLT-4 leukemia, 11.2 µM in the test with MCF7 breast, 28.9 µM in the test on UACC-62 melanoma and 2.68 µM in the test with CAKI-1 renal.

`COc1ccc(/C=C2\C[C@H]3[C@@H]4CCC5=C/C(=N/O)CC[C@]5(C)[C@H]4CC[C@]3(C)\C2=N\O)cc1OC`: the TGI in the test on OVCAR-4 ovarian, in the test with HS 578T breast, in the test with DU-145 prostate, with BT-549 breast, with HOP-62 NSCLC and with KM12 colon was more than 100 µM throughout. The TGI in the test with MOLT-4 leukemia was 94.3 µM; in the test with MCF7 breast it was more than 100 µM; with UACC-62 melanoma it was more than 100 µM; in the test on CAKI-1 renal, more than 100 µM.

Turning to `COc1ccc(S(=O)(=O)N2C(=O)CCC2C(=O)NN)cc1` (stereo not given), the TGI in the test with OVCAR-4 ovarian, in the test with HS 578T breast, in the test on DU-145 prostate, in the test with BT-549 breast, in the test on HOP-62 NSCLC and with KM12 colon was more than 100 µM in each case. Moreover, the TGI in the test on MOLT-4 leukemia, in the test on MCF7 breast, in the test with UACC-62 melanoma and in the test with CAKI-1 renal was more than 100 µM each time.

On to `O=C(O)C(SC1=NNC2(C(=O)N1)c1ccccc1-c1ccccc12)SC1=NNC2(C(=O)N1)c1ccccc1-c1ccccc12`, for which the TGI in the test with OVCAR-4 ovarian, in the test with HS 578T breast, in the test on DU-145 prostate, in the test on BT-549 breast, in the test with HOP-62 NSCLC and in the test with KM12 colon was more than 10 µM each time. Besides, the TGI in the test with MOLT-4 leukemia, in the test on MCF7 breast, in the test with UACC-62 melanoma and with CAKI-1 renal was more than 10 µM each time.

For `COc1cc2nc(-c3cccs3)oc(=O)c2cc1OC`, the TGI was more than 100 µM with OVCAR-4 ovarian; more than 100 µM in the test with HS 578T breast; more than 100 µM with DU-145 prostate; more than 100 µM in the test with BT-549 breast; 69.1 µM with HOP-62 NSCLC; more than 100 µM with KM12 colon. The TGI with MOLT-4 leukemia, in the test with MCF7 breast, with UACC-62 melanoma and in the test on CAKI-1 renal was more than 100 µM each time.

Turning to `O=C(CNc1c(Cl)cccc1Cl)NC1C=Cc2ccc(S(=O)(=O)Nc3c(Cl)cccc3Cl)cc2C1=O` (stereo not given), the TGI in the test on OVCAR-4 ovarian, in the test on HS 578T breast, with DU-145 prostate, with BT-549 breast, in the test on HOP-62 NSCLC and with KM12 colon was more than 100 µM each time. In addition, the TGI in the test on MOLT-4 leukemia, in the test on MCF7 breast, with UACC-62 melanoma and in the test with CAKI-1 renal was more than 100 µM in each case.

With `Cc1cc(-c2nc3ccccc3s2)ccc1NC(=O)[C@@H](N)CCCCN`, the TGI was 21.3 µM in the test with OVCAR-4 ovarian; 45.3 µM with HS 578T breast; 25.2 µM in the test with DU-145 prostate; 24.1 µM with BT-549 breast; 25.9 µM in the test on HOP-62 NSCLC; 8.03 µM with KM12 colon. Besides, the concentration for total growth inhibition (TGI) is 17.1 µM in the test with MOLT-4 leukemia, 11.7 µM with MCF7 breast, 29.2 µM with UACC-62 melanoma and 20.8 µM in the test with CAKI-1 renal.

Take `Nc1nc(Cl)cc(NCC2(CO)CCC(CCc3ccccc3)C2)n1` (stereo not given): the TGI is 31.2 µM with OVCAR-4 ovarian; 52.7 µM in the test on HS 578T breast; 30.2 µM with DU-145 prostate; 30.3 µM in the test with BT-549 breast; 23.1 µM in the test on HOP-62 NSCLC; 30.1 µM in the test with KM12 colon. Further, the total growth inhibition concentration (TGI) in the test with MOLT-4 leukemia turned out to be 11.7 µM; in the test on MCF7 breast, 32.7 µM; in the test on UACC-62 melanoma, 28.3 µM; in the test on CAKI-1 renal, 30.2 µM.
